Data as given in patent US9351974B2, “Substituted pteridinones for the treatment of cancer” (OSI Pharmaceuticals, LLC, priority 2011, dated 2016).

Each compound was assayed against T1, His-tagged full-length RSK2 (RPS6KA3) (Homo sapiens, UniProt P51812) (assay: RSK2 Omnia Assay for compound IC50 determination). Settings: ATP 15 μM, n=2, read-out: Mean RSK2 Biochem IC50.
T1 construct: His-tagged full-length RSK2 (RPS6KA3, Invitrogen PV3323); His; purchased Invitrogen PV3323
Assay type: biochemical
In short: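 Continuous fluorescence assay (ex 360/em 485 nm) of SOX-peptide (Omnia ST Peptide 6, 5 μM) phosphorylation with ATP 15 μM (Km 16.3 μM). Enzyme was […], in pH 7.5 HEPES/MgCl2 buffer with 1% DMSO. IC50 came from 11-point threefold dilutions ([…]) by four-parameter fit of initial slopes, in duplicate; Ki by Cheng-Prusoff assuming competitive inhibition.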

T1 sequence (P51812 whole entry): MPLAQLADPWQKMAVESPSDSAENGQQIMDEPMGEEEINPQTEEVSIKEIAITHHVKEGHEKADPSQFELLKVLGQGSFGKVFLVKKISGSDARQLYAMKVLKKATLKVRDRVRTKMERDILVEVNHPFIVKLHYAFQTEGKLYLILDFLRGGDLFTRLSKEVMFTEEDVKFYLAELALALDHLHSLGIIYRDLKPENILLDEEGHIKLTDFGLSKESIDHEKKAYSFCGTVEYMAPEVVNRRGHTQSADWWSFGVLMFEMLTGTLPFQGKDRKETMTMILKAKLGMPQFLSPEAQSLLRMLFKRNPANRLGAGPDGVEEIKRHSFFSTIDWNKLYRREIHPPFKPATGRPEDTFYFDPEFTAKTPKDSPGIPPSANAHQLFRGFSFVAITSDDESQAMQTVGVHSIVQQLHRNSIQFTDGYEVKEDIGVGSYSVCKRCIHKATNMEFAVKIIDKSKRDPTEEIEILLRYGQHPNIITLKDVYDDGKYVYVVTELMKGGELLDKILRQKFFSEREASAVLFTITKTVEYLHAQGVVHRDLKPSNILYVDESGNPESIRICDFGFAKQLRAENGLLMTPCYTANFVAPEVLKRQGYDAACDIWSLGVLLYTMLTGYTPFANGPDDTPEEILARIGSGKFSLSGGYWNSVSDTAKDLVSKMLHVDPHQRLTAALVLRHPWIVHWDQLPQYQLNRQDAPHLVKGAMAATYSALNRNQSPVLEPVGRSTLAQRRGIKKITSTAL

Row | IC50 [µM] | Compound
1 | ≤ 0.1 | C[C@@H]1C(=O)N(c2ccccc2)c2cnc(Nc3ccc4[nH]ncc4c3)nc2N1CC1CCCC1 [Example 75, (7R)-8-(cyclopentylmethyl)-2-(1H-indazol-5-ylamino)-7-methyl-5-phenyl-7,8-dihydropteridin-6(5H)-one]
2 | ≤ 0.1 | C[C@@H]1C(=O)N(c2ccc(N3CCC(O)CC3)nc2)c2cnc(Nc3cc(F)c4[nH]ncc4c3)nc2N1C1CCCCC1 [compound 147, (7R)-8-cyclohexyl-2-[(7-fluoro-1H-indazol-5-yl)amino]-5-[6-(4-hydroxypiperidin-1-yl)pyridin-3-yl]-7-methyl-7,8-dihydropteridin-6(5H)-one]
3 | ≤ 0.1 | C[C@@H]1C(=O)N(c2ccc(N3CCN(C)CC3)nc2)c2cnc(Nc3cc(F)c4[nH]ncc4c3)nc2N1C1CCCCC1 [compound 139, (7R)-8-cyclohexyl-2-[(7-fluoro-1H-indazol-5-yl)amino]-7-methyl-5-[6-(4-methylpiperazin-1-yl)pyridin-3-yl]-7,8-dihydropteridin-6(5H)-one]
4 | ≤ 0.1 | C[C@@H]1C(=O)N(c2cccc(C(=O)N(C)C)c2)c2cnc(Nc3ccc4[nH]ncc4c3)nc2N1C1CCCCC1 [Example 32, 3-[(7R)-8-cyclohexyl-2-(1H-indazol-5-ylamino)-7-methyl-6-oxo-7,8-dihydropteridin-5(6H)-yl]-N,N-dimethylbenzamide]
5 | ≤ 0.1 | CC1C(=O)N(c2ccccc2)c2cnc(Nc3ccc4[nH]ncc4c3)nc2N1c1ccccc1 (centres unmarked) [Example 178, 2-(1H-indazol-5-ylamino)-7-methyl-5,8-diphenyl-7,8-dihydropteridin-6(5H)-one]
6 | ≤ 0.1 | C[C@@H]1C(=O)N(c2cccnc2)c2cnc(Nc3cc(F)c4[nH]ncc4c3)nc2N1[C@H]1CC[C@H](C(F)(F)F)CC1 [compound 256]
7 | ≤ 0.1 | C[C@@H]1C(=O)N(c2cccc(C#N)c2)c2cnc(Nc3cc(F)c4[nH]ncc4c3)nc2N1C1CCOCC1 [compound 186, 3-[(7R)-2-[(7-fluoro-1H-indazol-5-yl)amino]-7-methyl-6-oxo-8-(tetrahydro-2H-pyran-4-yl)-7,8-dihydropteridin-5(6H)-yl]benzonitrile]
8 | ≤ 0.1 | COc1ccc(N2C(=O)[C@@H](C)N(C3CCC4(CC3)CC4)c3nc(Nc4cc(F)c5[nH]ncc5c4)ncc32)cc1OC [Example 299, (7R)-5-(3,4-dimethoxyphenyl)-2-[(7-fluoro-1H-indazol-5-yl)amino]-7-methyl-8-(spiro[2.5]oct-6-yl)-7,8-dihydropteridin-6(5H)-one]
9 | ≤ 0.1 | CC(C)Oc1ccc(N2C(=O)[C@@H](C)N(C3CCOCC3)c3nc(Nc4cc(F)c5[nH]ncc5c4)ncc32)cc1C#N [compound 196, 5-[(7R)-2-[(7-fluoro-1H-indazol-5-yl)amino]-7-methyl-6-oxo-8-(tetrahydro-2H-pyran-4-yl)-7,8-dihydropteridin-5(6H)-yl]-2-(propan-2-yloxy)benzonitrile]
10 | ≤ 0.1 | COc1cccc(N2c3nc(Nc4cc(F)c5[nH]ncc5c4)ncc3N(c3cccc(C#N)c3)C(=O)[C@H]2C)c1 [compound 181, 3-[(7R)-2-[(7-fluoro-1H-indazol-5-yl)amino]-8-(3-methoxyphenyl)-7-methyl-6-oxo-7,8-dihydropteridin-5(6H)-yl]benzonitrile]
11 | ≤ 0.1 | C[C@@H]1C(=O)N(c2ccc(C#N)cc2)c2cnc(Nc3ccc4[nH]ncc4c3)nc2N1C1CCCCC1 [Example 19, 4-[(7R)-8-cyclohexyl-2-(1H-indazol-5-ylamino)-7-methyl-6-oxo-7,8-dihydropteridin-5(6H)-yl]benzonitrile]
12 | 0.1 to 1 | CC(C)N1c2nc(Nc3ccc4c(c3)CC(=O)N4)ncc2N(c2ccccc2)C(=O)C1C (centres unmarked) [Example 94, 7-methyl-2-[(2-oxo-2,3-dihydro-1H-indol-5-yl)amino]-5-phenyl-8-(propan-2-yl)-7,8-dihydropteridin-6(5H)-one]
13 | ≤ 0.1 | COc1cccc(N2C(=O)[C@@H](C)N(C3CCCCC3)c3nc(Nc4ccc5[nH]ncc5c4)ncc32)c1 [Example 28, (7R)-8-cyclohexyl-2-(1H-indazol-5-ylamino)-5-(3-methoxyphenyl)-7-methyl-7,8-dihydropteridin-6(5H)-one]
14 | ≤ 0.1 | C[C@@H]1C(=O)N(c2ccc(N3CCCCC3)nc2)c2cnc(Nc3cc(F)c4[nH]ncc4c3)nc2N1C1CCC(C)(C)CC1 [Example 215, (7R)-8-(4,4-dimethylcyclohexyl)-2-[(7-fluoro-1H-indazol-5-yl)amino]-7-methyl-5-[6-(piperidin-1-yl)pyridin-3-yl]-7,8-dihydropteridin-6(5H)-one]
15 | ≤ 0.1 | C[C@@H]1C(=O)N(c2cccnc2)c2cnc(Nc3ccc4[nH]c(=O)oc4c3)nc2N1C1CCCCC1 [compound 151, (7R)-8-cyclohexyl-7-methyl-2-[(2-oxo-2,3-dihydro-1,3-benzoxazol-6-yl)amino]-5-(pyridin-3-yl)-7,8-dihydropteridin-6(5H)-one]
16 | ≤ 0.1 | C[C@@H]1C(=O)N(c2cccc(F)c2)c2cnc(Nc3ccc4[nH]ncc4c3)nc2N1C1CCCCC1 [Example 25, (7R)-8-cyclohexyl-5-(3-fluorophenyl)-2-(1H-indazol-5-ylamino)-7-methyl-7,8-dihydropteridin-6(5H)-one]
17 | ≤ 0.1 | C[C@@H]1C(=O)N(c2cccc(C#N)c2)c2cnc(Nc3cc(F)c4[nH]nc(F)c4c3)nc2N1C1CCCCC1 [compound 131, 3-[(7R)-8-cyclohexyl-2-[(3,7-difluoro-1H-indazol-5-yl)amino]-7-methyl-6-oxo-7,8-dihydropteridin-5(6H)-yl]benzonitrile]
18 | ≤ 0.1 | C[C@@H]1C(=O)N(c2cccc(C#N)c2)c2cnc(Nc3cc(F)c(O)c(F)c3)nc2N1[C@H]1CC[C@H](C)CC1 [compound 243, 3-[(7R)-2-[(3,5-difluoro-4-hydroxyphenyl)amino]-7-methyl-8-(trans-4-methylcyclohexyl)-6-oxo-7,8-dihydropteridin-5(6H)-yl]benzonitrile]
19 | ≤ 0.1 | COc1ccc(N2C(=O)[C@@H](C)N(C3CCC(F)(F)CC3)c3nc(Nc4cc(F)c5[nH]c(=O)oc5c4)ncc32)cc1C#N [compound 281, 5-[(7R)-8-(4,4-difluorocyclohexyl)-2-[(4-fluoro-2-oxo-2,3-dihydro-1,3-benzoxazol-6-yl)amino]-7-methyl-6-oxo-7,8-dihydropteridin-5(6H)-yl]-2-methoxybenzonitrile]
20 | ≤ 0.1 | C[C@@H]1C(=O)N(c2cccnc2)c2cnc(Nc3cc(F)c4[nH]ncc4c3)nc2N1C1CCC(F)(F)CC1 [compound 264, (7R)-8-(4,4-difluorocyclohexyl)-2-[(7-fluoro-1H-indazol-5-yl)amino]-7-methyl-5-(pyridin-3-yl)-7,8-dihydropteridin-6(5H)-one]
21 | ≤ 0.1 | CC(C)CCN1c2nc(Nc3cc(F)c4[nH]ncc4c3)ncc2N(c2cccnc2)C(=O)[C@H]1C [Example 87, (7R)-2-[(7-fluoro-1H-indazol-5-yl)amino]-7-methyl-8-(3-methylbutyl)-5-(pyridin-3-yl)-7,8-dihydropteridin-6(5H)-one]
22 | ≤ 0.1 | C[C@@H]1C(=O)N(c2cccc([S+](C)[O-])c2)c2cnc(Nc3ccc4[nH]ncc4c3)nc2N1C1CCCCC1 (stereo partly drawn) [compound 114, (7R)-8-cyclohexyl-2-(1H-indazol-5-ylamino)-7-methyl-5-[3-(methylsulfinyl)phenyl]-7,8-dihydropteridin-6(5H)-one]
23 | ≤ 0.1 | CO[C@H]1CC[C@@H](N2c3nc(Nc4cc(F)c5[nH]ncc5c4)ncc3N(c3cccc(C#N)c3)C(=O)[C@H]2C)CC1 [compound 223, 3-[(7R)-2-[(7-fluoro-1H-indazol-5-yl)amino]-8-(cis-4-methoxycyclohexyl)-7-methyl-6-oxo-7,8-dihydropteridin-5(6H)-yl]benzonitrile]
24 | ≤ 0.1 | CCOc1ccc(N2C(=O)[C@@H](C)N(C3CCC(F)(F)CC3)c3nc(Nc4cnc5[nH]ncc5c4)ncc32)cc1C#N [compound 282, 5-[(7R)-8-(4,4-difluorocyclohexyl)-7-methyl-6-oxo-2-(1H-pyrazolo[3,4-b]pyridin-5-ylamino)-7,8-dihydropteridin-5(6H)-yl]-2-ethoxybenzonitrile]
25 | 0.1 to 1 | Cc1n[nH]c2ccc(Nc3ncc4c(n3)N(C3CCCCC3)[C@H](C)C(=O)N4c3cccc(C#N)c3)cc12 [compound 103, 3-[(7R)-8-cyclohexyl-7-methyl-2-[(3-methyl-1H-indazol-5-yl)amino]-6-oxo-7,8-dihydropteridin-5(6H)-yl]benzonitrile]
26 | ≤ 0.1 | C[C@@H]1C(=O)N(c2ccc(N3CCN(C)CC3)c(C#N)c2)c2cnc(Nc3cc(F)c4[nH]ncc4c3)nc2N1[C@H]1CC[C@H](C)CC1 [compound 251, 5-[(7R)-2-[(7-fluoro-1H-indazol-5-yl)amino]-7-methyl-8-(trans-4-methylcyclohexyl)-6-oxo-7,8-dihydropteridin-5(6H)-yl]-2-(4-methylpiperazin-1-yl)benzonitrile]
27 | ≤ 0.1 | C[C@@H]1C(=O)N(c2cccc(C(F)(F)F)c2)c2cnc(Nc3ccc4[nH]ncc4c3)nc2N1C1CCCCC1 [Example 36, (7R)-8-cyclohexyl-2-(1H-indazol-5-ylamino)-7-methyl-5-[3-(trifluoromethyl)phenyl]-7,8-dihydropteridin-6(5H)-one]
28 | ≤ 0.1 | [2H]C1([2H])C(N2c3nc(Nc4cc(F)c5[nH]ncc5c4)ncc3N(c3cccc(C#N)c3)C(=O)[C@H]2C)C([2H])([2H])C([2H])([2H])C([2H])([2H])C1([2H])[2H] [compound 302, 3-[(7R)-8-[(2,2,3,3,4,4,5,5,6,6-2H10)cyclohexyl]-2-[(7-fluoro-1H-indazol-5-yl)amino]-7-methyl-6-oxo-7,8-dihydropteridin-5(6H)-yl]benzonitrile]
29 | ≤ 0.1 | C[C@@H]1C(=O)N(c2cccc(C#N)c2)c2cnc(Nc3cc(F)c4[nH]nc(F)c4c3F)nc2N1C1CCCCC1 [compound 146, 3-[(7R)-8-cyclohexyl-7-methyl-6-oxo-2-[(3,4,7-trifluoro-1H-indazol-5-yl)amino]-7,8-dihydropteridin-5(6H)-yl]benzonitrile]
